test: recombinant barcode read abundance after kanamycin selection (control-corrected) (log10(CPM+1)); higher = more efficient recombination; sequences stand for … in AGTGCAGAGAAAATCGGCCAGTTTTCTCTGCCTGCAGTCCGCATGCCGT…AGATTTATGCAGCGGACTGCCTTTCTCCCAAAGTGATAAACCGGACAGTATCATGGACCGGTTTTCCCGGTAATCCGTATTTGCAAGGTTGGTTTCACT; site = the 11-nt target
Outline: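 Oligos holding a promoter, target, barcode and the J23119-driven first 104 bases of the bridge RNA were Gibson-cloned into a vector that supplied the other 73 bp plus a T7-inducible recombinase. This library was co-electroporated with a donor plasmid into E. coli. Two replicates went on chloramphenicol/ampicillin LB agar (control) and two on chloramphenicol/ampicillin/kanamycin with 0.1 mM IPTG. Recombination efficiency is read from averaged, control-corrected barcode counts per million at recombinant junctions, reported as log10(CPM+1).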
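Further: IS621 recombinase and bridge RNA in Escherichia coli cells.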

Sequence | recombinant barcode read abundance (log10)
CTCTAGTCTTGGGTTCTAACCTGTTGCCT (site CTCTAGTCTAT) | 0.526
TAGCGGTCTTGGGTTCTAACCTGTTGCCT (site TAGCGGACTAT) | 0.0756
TAGACTACTTGGGTTCTAACCTGTTGCTA (site TAGACTACTGA) | 0.0863
GTGGGCACTTGGGTTCTAACCTGTTGCCT (site AGAAAGGCTGC) | 0.166
TCCCGAGCTTGGGTTCTAACCTGTTGCCT (site TCCCGAACTAG) | 0.435
CGGCGTACTTGGGTTCTAACCTGTTGCCT (site CGCCGTACTAG) | 0.103
CTGTCTCCTTGGGTTCTAACCTGTTGCGT (site AGAAGCACTTG) | 0.11
CAGCCACCTTGGGTTCTAACCTGTTGCCT (site TAGCCACCTAG) | 0
TGTTAGTCTTGGGTTCTAACCTGTTGCCG (site TGTTAGACTAG) | 0.0136
GATTTCGCTTGGGTTCTAACCTGTTGCCT (site GATTTCGCTAG) | 0.42
AGCGGTCCTTGGGTTCTAACCTGTTGCCT (site AGCGGACCTAG) | 0.797
CTCTAGCCTTGGGTTCTAACCTGTTGCGT (site CTCTAACCTAC) | 1.38
ACTTAGACTTGGGTTCTAACCTGTTGCCG (site ACTTAGACTTG) | 0.129
TGAACTACTTGGGTTCTAACCTGTTGCCT (site TGAAGTACTAG) | 0.0835
GGGACCTCTTGGGTTCTAACCTGTTGCGT (site GGGACCTCTAC) | 2.68
TCGGGATCTTGGGTTCTAACCTGTTGCCT (site TCGGGATCTAG) | 1.05
AGGAACCCTTGGGTTCTAACCTGTTGCTA (site AGGAACCCTTA) | 1.44
GTCCTACCTTGGGTTCTAACCTGTTGCAA (site GTCCTAACTGT) | 0.42
AGGCCGTCTTGGGTTCTAACCTGTTGCGG (site CACTACCCTAA) | 0.357
GTAGAGTCTTGGGTTCTAACCTGTTGCCT (site GGAGAGTCTAG) | 0.239
TTACCGACTTGGGTTCTAACCTGTTGCCT (site TTACCGACTAG) | 2.33
GTACTGCCTTGGGTTCTAACCTGTTGCCT (site GTACAGCCTAG) | 0.52

Sequence | recombinant barcode read abundance (log10)
CAAACAACTTGGGTTCTAACCTGTTGCCT (site CAAACACCTAG) | 0.188
AAATCGTCTTGGGTTCTAACCTGTTGCCT (site AAATCGTCTAG) | 0.817
TATTCTACTTGGGTTCTAACCTGTTGCGC (site TATTCTACTTC) | 0.0215
TGGCCCTCTTGGGTTCTAACCTGTTGCTA (site TGGCCCTCTCA) | 0.0705
CATTGGACTTGGGTTCTAACCTGTTGCCT (site CATTGGACTAG) | 0.662
TACTATCCTTGGGTTCTAACCTGTTGCCT (site TACTATCCTAG) | 0.441
GATAGTTCTTGGGTTCTAACCTGTTGCCT (site GATAGTCCTAG) | 0.675
GGAGAGGCTTGGGTTCTAACCTGTTGCCT (site GGAGAAGCTAG) | 0.893
TCTCGGCCTTGGGTTCTAACCTGTTGCCT (site TCTCAGCCTAG) | 0.0701
TCCATCCCTTGGGTTCTAACCTGTTGCCT (site TCGATCCCTAG) | 0.0154
TAACATACTTGGGTTCTAACCTGTTGCAT (site TAACGTACTAT) | 0.233
GATGTGCCTTGGGTTCTAACCTGTTGCGT (site CCGCGAGCTCG) | 0.0696
TCTGACTCTTGGGTTCTAACCTGTTGCAT (site TCTAATTCTAT) | 0.0501
GATTTCGCTTGGGTTCTAACCTGTTGCCT (site ATCAGTTCTCA) | 0.0643
AGGAGTACTTGGGTTCTAACCTGTTGCTT (site GCATCCTCTTG) | 0.12
GGGTCCACTTGGGTTCTAACCTGTTGCAT (site GGGTCCACTAG) | 0.699
CTCATTCCTTGGGTTCTAACCTGTTGCCT (site CTCATTCCTAA) | 0.0318
CTTAAATCTTGGGTTCTAACCTGTTGCCT (site CTTTAATCTAG) | 0.165
TCTAATTCTTGGGTTCTAACCTGTTGCGT (site TCTGATTCTAC) | 0.899
CGCCCGCCTTGGGTTCTAACCTGTTGCCT (site CGCCCGCCTAG) | 0.0631
TCTCACTCTTGGGTTCTAACCTGTTGCCT (site TCGCACTCTAG) | 0.0924
CCTTGCTCTTGGGTTCTAACCTGTTGCCT (site CCTTGGACTAG) | 0.114

Sequence | recombinant barcode read abundance (log10)
ATGACCTCTTGGGTTCTAACCTGTTGCCT (site ATGGCCTCTAG) | 0.46
TCCAAAGCTTGGGTTCTAACCTGTTGCTA (site TCCTAAGCTTA) | 0.251
GCGGGGTCTTGGGTTCTAACCTGTTGCCT (site CCGGGGTCTAG) | 0.627
GGTCCACCTTGGGTTCTAACCTGTTGCCT (site CGTCCACCTAG) | 0.181
ACCCTAGCTTGGGTTCTAACCTGTTGCTC (site AACCTAGCTTA) | 0.191
TAATTAGCTTGGGTTCTAACCTGTTGCCT (site TAAATAGCTAG) | 0.0142
CATTCCACTTGGGTTCTAACCTGTTGCCT (site TCGCGTGCTCC) | 0.0105
AGGAATCCTTGGGTTCTAACCTGTTGCTT (site AGGAGTCCTCA) | 0.0229
CTTGGGCCTTGGGTTCTAACCTGTTGCGG (site GTTGGGGCTCC) | 0.0414
TTGTCGACTTGGGTTCTAACCTGTTGCCA (site TTGGCGACTTG) | 0.00572
GCTGGGCCTTGGGTTCTAACCTGTTGCGA (site GCTGGGCCTTC) | 2.17
TTAGTGGCTTGGGTTCTAACCTGTTGCCT (site TTAGTCGCTAG) | 0.0499
GTCTAAGCTTGGGTTCTAACCTGTTGCTT (site GTCTAAGCTAA) | 0.0172
TGCATAGCTTGGGTTCTAACCTGTTGCCA (site TGCATAGCTTG) | 0.0795
AGCATTCCTTGGGTTCTAACCTGTTGCCT (site AGCATTCCTAG) | 0.394
CTATAGACTTGGGTTCTAACCTGTTGCCA (site CTCTAGACTAG) | 0.206
ATGCCATCTTGGGTTCTAACCTGTTGCCT (site ATTCCATCTAG) | 0.149
CTTCAGGCTTGGGTTCTAACCTGTTGCCT (site CTTCAGGCTAG) | 0.594
AGGCGTCCTTGGGTTCTAACCTGTTGCCA (site AGGCGTCCTCG) | 0.056
GCCAAACCTTGGGTTCTAACCTGTTGCCT (site GCCATACCTAG) | 0.184
TAACCATCTTGGGTTCTAACCTGTTGCCT (site TATCCATCTAG) | 0.0811
GTATGCCCTTGGGTTCTAACCTGTTGCCT (site GTGGGCCCTAG) | 0

Sequence | recombinant barcode read abundance (log10)
TATCCATCTTGGGTTCTAACCTGTTGCCT (site TACCCATCTAG) | 0.0382
GTTGGTCCTTGGGTTCTAACCTGTTGCGT (site GTTGGTCCTAC) | 2.76
CAGGCGCCTTGGGTTCTAACCTGTTGCCT (site CAGGCGCCTAG) | 0.979
TTGGATCCTTGGGTTCTAACCTGTTGCTT (site TTGGATCCTAG) | 1.85
GAGTACACTTGGGTTCTAACCTGTTGCGC (site AGCGCGCCTCA) | 0.0967
GGGCTTACTTGGGTTCTAACCTGTTGCCT (site GAGCTTACTAG) | 0.695
CCGGGTTCTTGGGTTCTAACCTGTTGCCT (site CGGGGTTCTAG) | 0.16
AGGGTTCCTTGGGTTCTAACCTGTTGCTT (site TCATGGGCTCT) | 0.0235
TAGCATACTTGGGTTCTAACCTGTTGCCA (site TAGCATACTGG) | 0.359
TACAGACCTTGGGTTCTAACCTGTTGCCT (site GACAGACCTAG) | 0.065
GTTTGATCTTGGGTTCTAACCTGTTGCCT (site GTTTGATCTAG) | 0.172
TTAGTCCCTTGGGTTCTAACCTGTTGCCT (site TTAGTACCTAG) | 0.113
CCTACAACTTGGGTTCTAACCTGTTGCCT (site CCTACAACTAG) | 0.313
ATGAGGACTTGGGTTCTAACCTGTTGCGT (site ATGAGGACTAC) | 2.45
AACGCTCCTTGGGTTCTAACCTGTTGCGG (site CACGGTCCTCC) | 0.0943
GTGCCTCCTTGGGTTCTAACCTGTTGCTT (site GTGCCTCCTAA) | 1.01
ACCGCTCCTTGGGTTCTAACCTGTTGCCT (site ACCGCTCCTAG) | 0.297
GCACGTGCTTGGGTTCTAACCTGTTGCCT (site GCGCGTGCTAG) | 0.0268
GGGTCCTCTTGGGTTCTAACCTGTTGCCG (site GGGTCCTCTCG) | 2.01
ACAGGGTCTTGGGTTCTAACCTGTTGCCT (site ATAGGGTCTAG) | 0.355

Source: the supplement of paper PMC11208160
